Structures can show the parent of a compound that is named as a salt. Where two headings read alike, the source gives them in different places.
Key:
[1] = target: T1, α1A (rat submaxillary gland) (Rattus norvegicus, UniProt P43140); test: Radioligand binding, [3H]-prazosin, α1A
T1 construct: α1A (rat submaxillary gland); from tissue; host or cells: rat submaxillary gland
T1 sequence (P43140 1-466): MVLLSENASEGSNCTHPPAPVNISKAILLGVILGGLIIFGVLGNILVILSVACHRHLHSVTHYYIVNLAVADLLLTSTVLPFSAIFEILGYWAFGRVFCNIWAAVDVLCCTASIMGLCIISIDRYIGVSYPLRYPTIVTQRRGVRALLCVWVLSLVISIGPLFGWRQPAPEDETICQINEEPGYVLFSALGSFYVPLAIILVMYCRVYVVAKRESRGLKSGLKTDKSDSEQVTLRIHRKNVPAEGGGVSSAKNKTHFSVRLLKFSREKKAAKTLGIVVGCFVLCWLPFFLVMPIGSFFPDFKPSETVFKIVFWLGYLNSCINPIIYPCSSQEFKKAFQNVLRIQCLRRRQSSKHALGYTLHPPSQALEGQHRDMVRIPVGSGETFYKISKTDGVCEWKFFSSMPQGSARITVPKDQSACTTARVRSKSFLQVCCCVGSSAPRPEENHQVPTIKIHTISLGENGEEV
Procedure: (§1) For purposes of discussing a, adrenoceptor subtypes, the IUPHAR convention of using lower case letters to define molecular clones and upper case letters to indicate pharmacologically defined adrenoceptors has been followed. Compounds of formula I were evaluated in radioligand binding assays specific for α1A (rat submaxillary gland), α1b (hamster receptor expressed in mouse fibroblasts) and α1d (rat receptor expressed in mouse fibroblasts) using [^3H]-prazosin as the radioligand as described in Knepper, et al. J. Pharm.

[2] = target: T2, α1b (hamster receptor expressed in mouse fibroblasts) (Mesocricetus auratus, UniProt P18841); test: Radioligand binding, [3H]-prazosin, α1b
T2 construct: expressed in transfected cells; host or cells: mouse fibroblasts
T2 sequence (P18841 1-515): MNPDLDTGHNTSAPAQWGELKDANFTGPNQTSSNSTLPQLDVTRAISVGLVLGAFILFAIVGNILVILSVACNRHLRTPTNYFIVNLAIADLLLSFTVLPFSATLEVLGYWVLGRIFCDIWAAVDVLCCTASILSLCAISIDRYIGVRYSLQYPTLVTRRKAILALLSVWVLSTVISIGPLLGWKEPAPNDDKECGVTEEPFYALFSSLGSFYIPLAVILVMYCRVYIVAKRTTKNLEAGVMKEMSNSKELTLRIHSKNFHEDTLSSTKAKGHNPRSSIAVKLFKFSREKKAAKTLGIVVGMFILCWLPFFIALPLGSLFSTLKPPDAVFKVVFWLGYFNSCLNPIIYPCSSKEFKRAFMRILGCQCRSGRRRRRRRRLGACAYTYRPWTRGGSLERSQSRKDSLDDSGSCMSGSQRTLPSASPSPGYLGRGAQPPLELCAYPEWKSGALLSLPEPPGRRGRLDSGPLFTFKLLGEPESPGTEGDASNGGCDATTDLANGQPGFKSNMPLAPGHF
Procedure: as §1

[3] = target: T3, α1d (rat receptor expressed in mouse fibroblasts) (Rattus norvegicus, UniProt P23944); test: Radioligand binding, [3H]-prazosin, α1d
T3 construct: expressed in transfected cells; host or cells: mouse fibroblasts
T3 sequence (P23944 1-561): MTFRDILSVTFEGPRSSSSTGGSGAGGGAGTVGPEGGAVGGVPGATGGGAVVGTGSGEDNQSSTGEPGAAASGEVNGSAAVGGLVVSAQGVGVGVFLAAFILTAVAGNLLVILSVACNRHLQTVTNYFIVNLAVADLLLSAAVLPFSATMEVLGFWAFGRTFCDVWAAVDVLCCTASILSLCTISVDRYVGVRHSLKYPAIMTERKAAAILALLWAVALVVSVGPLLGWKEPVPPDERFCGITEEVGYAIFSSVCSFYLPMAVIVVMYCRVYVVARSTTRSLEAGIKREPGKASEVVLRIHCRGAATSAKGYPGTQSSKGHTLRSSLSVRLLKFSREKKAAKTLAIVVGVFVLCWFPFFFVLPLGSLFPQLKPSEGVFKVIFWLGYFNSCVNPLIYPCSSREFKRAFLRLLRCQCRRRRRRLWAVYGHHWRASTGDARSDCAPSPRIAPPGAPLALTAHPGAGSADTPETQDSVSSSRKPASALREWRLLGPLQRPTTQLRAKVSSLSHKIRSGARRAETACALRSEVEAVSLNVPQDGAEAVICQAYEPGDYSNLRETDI
Procedure: as §1

[4] = hamster receptor expressed in mouse fibroblasts, [3H]-prazosin, read-out: Radioligand Binding Ki α1b (Hamster)
[5] = rat receptor expressed in mouse fibroblasts, [3H]-prazosin, read-out: Radioligand Binding Ki α1d (Rat)

| Structure (SMILES) | Ki [1] [µM] | Ki [2, 4] [µM] | Ki [3, 5] [µM] | melting point [°C] | Ki [2] [µM] | Ki [3] [µM] |
| --- | --- | --- | --- | --- | --- | --- |
| CCS(=O)(=O)Nc1cccc(C(=C(C)C)c2c[nH]cn2)c1 [Example 94, N-{3-[1-(1H-imidazol-4-yl)-2-methyl-1-propenyl]phenyl}ethanesulfonamide] | 1.94 | 1.18 | 0.173 | 152 to 155 | – | – |
| CCS(=O)(=O)Nc1cccc2c1SCCC2c1c[nH]cn1.O=C(O)/C=C\C(=O)O (stereo not shown) [Example 89, N-[4-(1H-imidazol-4-yl)-3,4-dihydro-2H-thiochromen-8-yl]ethanesulfonamide Maleate] | 1.01 | 10 | 10 | 248 to 251 | – | – |
| CCS(=O)(=O)Nc1cccc2c1CCCC2c1c[nH]c(C)n1.O=C(O)/C=C\C(=O)O (stereo not shown) [Example 84, N-[5-(2-methyl-1H-imidazol-4-yl)-5,6,7,8-tetrahydro-1-naphthalenyl]ethanesulfonamide, Maleate] | 0.792 | 10 | 10 | 73 to 77 | – | – |
| O=S(=O)(CC(F)(F)F)Nc1cccc2c1OCCC2c1c[nH]cn1 (single isomer, unassigned) [Example 88, 2,2,2-trifluoro-N-[4-(1H-imidazol-4-yl)-3,4-dihydro-2H-chromen-8-yl]ethanesulfonamide] | 0.573 | 10 | 10 | – | – | – |
| CCS(=O)(=O)Nc1cccc2c1CCCCC2c1c[nH]cn1.O=C(O)/C=C\C(=O)O (stereo not shown) [Example 40, N-[5-(1H-imidazol-4-yl)-6,7,8,9-tetrahydro-5H-benzo[a]cyclohepten-1-yl]ethanesulfonamide, Maleate] | – | 10 | 10 | 155 to 156 | – | – |
| CS(=O)(=O)Nc1cccc2c1CCCCC2c1c[nH]cn1.O=C(O)/C=C\C(=O)O (stereo not shown) [Example 38, N-[5-(1H-imidazol-4-yl)-6,7,8,9-tetrahydro-5H-benzo[a]cyclohepten-1-yl]methanesulfonamide, Maleate] | – | 10 | – | 162 to 164 | – | – |
| Cc1ccc(NS(C)(=O)=O)c2c1C(c1c[nH]cn1)CCC2.O=C(O)/C=C\C(=O)O (stereo not shown) [Example 23, N-[5,6,7,8-tetrahydro-5-(1H-imidazol-4-yl)-4-methyl-1-naphthalenyl]methanesulfonamide, Maleate] | – | 10 | – | 192 to 195 | – | – |
| Cc1ccc(OC(=O)Nc2cccc3c2CCCC3c2c[nH]cn2)cc1 (stereo not shown) [Example 124, 4-methylphenyl 5-(1H-imidazol-4-yl)-5,6,7,8-tetrahydro-1-naphthalenylcarbamate] | 0.451 | – | – | – | 1.47 | 0.787 |
| C=C(c1cccc(NS(=O)(=O)CC(F)(F)F)c1)c1c[nH]cn1.O=C(O)/C=C\C(=O)O [Example 91, 2,2,2-trifluoro-N-{3-[1-(1H-imidazol-4-yl)vinyl]phenyl}ethanesulfonamide Maleate] | 1.52 | – | – | 149 to 153 | 10 | 10 |
| CCS(=O)(=O)Nc1ccc(OC)c2c1CCCC2c1c[nH]cn1 (stereo not shown) [Example 25, N-[5,6,7,8-tetrahydro-(1H-imidazol-4-yl)-4-methoxy-1-naphthalenyl]ethanesulfonamide, Maleate] | – | 10 | 10 | – | – | – |
| CCS(=O)(=O)Nc1cc(F)cc2c1CCCC2c1c[nH]cn1 (stereo not shown) [Example 131, N-[3-fluoro-5-(1H-imidazol-4-yl)-5,6,7,8-tetrahydro-1-naphthalenyl]ethanesulfonamide] | 0.09 | 10 | 2.16 | – | – | – |
| COC(=O)Nc1cccc2c1CCCC2c1c[nH]cn1 (stereo not shown) [Example 119, methyl 5-(1H-imidazol-4-yl)-5,6,7,8-tetrahydro-1-naphthalenylcarbamate] | – | – | – | – | 10 | 3.04 |
| CN(C)S(=O)(=O)Nc1cccc2c1CCCC2c1c[nH]cn1 (stereo not shown) [Example 111, N′-[5-(1H-imidazol-4-yl)-5,6,7,8-tetrahydro-1-naphthalenvyl]-N,N-dimethylsulfamide] | 0.579 | 10 | 1.59 | 208 to 210 | – | – |
| CC(C)(OC(=O)Nc1cccc2c1CCCC2c1c[nH]cn1)C(Cl)(Cl)Cl (stereo not shown) [Example 122, 2,2,2-trichloro-1-dimethylethyl 5-(1H-imidazol-4-yl)-5,6,7,8-tetrahydro-1-naphthalenylcarbamate] | 1.03 | – | – | – | 10 | 1.27 |
| CS(=O)(=O)Nc1ccc(O)c2c1CCCC2c1c[nH]cn1.O=C(O)/C=C\C(=O)O (stereo not shown) [Example 24, N-[5,6,7,8-tetrahydro-4-hydroxy-5-(1H-imidazol-4-yl)-1-naphthalenyl]methanesulfonamide, Maleate] | – | 10 | 10 | 127 to 131 | – | – |
| Cc1noc(C)c1S(=O)(=O)Nc1cccc2c1CCCC2c1c[nH]cn1 (stereo not shown) [Example 61, N-[5-(1H-imidazol-4-yl)-5,6,7,8-tetrahydro-1-naphthalenyl]-3,5-dimethyl-4-isoxazolesulfonamide] | – | 10 | 10 | – | – | – |
| O=S(=O)(CC(F)(F)F)Nc1cccc2c1CCCC2c1c[nH]cn1 (single isomer, unassigned; (+)) [Example 36, (+)-N-[5,6,7,8-tetrahydro-5-(1H-imidazol-4-yl)-1-napbthalenyl]-2,2,2-trifluoroethanesulfonamide] | – | – | 10 | > 260 | – | – |
| CCN(C(=O)Nc1cccc2c1CCCC2c1c[nH]cn1)C(C)C (stereo not shown) [Example 118, N-ethyl-N′-[5-(1H-imidazol-4-yl)-5,6,7,8-tetrahydro-1-naphthalenyl]-N-isopropylurea] | 0.329 | 10 | 0.92 | – | – | – |
| CCS(=O)(=O)Nc1cccc2c1OCCC2c1c[nH]cn1 (stereo not shown) [Example 79, N-[4-(1H-imidazol-4-yl)-3,4-dihydro-2H-chromen-8-yl]ethanesulfonamide] | 0.638 | 10 | 10 | – | – | – |
| CCS(=O)(=O)Nc1ccc(Cl)c2c1CCCC2c1c[nH]cn1.O=C(O)/C=C\C(=O)O (stereo not shown) [Example 42, N-[4-chloro-5-(1H-imidazol-4-yl)-5,6,7,8-tetrahydro-1-naphthalenyl]ethanesulfonamide, Maleate] | – | 10 | – | 151 to 155 | – | – |
| CCCn1cnc(C2CCCc3c2ccc(O)c3NS(C)(=O)=O)c1.Cl (stereo not shown) [Example 7, N-[2-hydroxy-5-(1-propyl-1H-imidazol-4-yl)-5,6,7,8-tetrahydro-1-naphthalenyl]methanesulfonamide, Hydrochloride] | – | 100 | – | 128 to 133 | – | – |
| CCS(=O)(=O)Nc1cc(C2CCCCC2)cc2c1CCCC2c1c[nH]cn1 (stereo not shown) [Example 101, N-[3-cyclohexyl-5-(1H-imidazol-4-yl)-5,6,7,8-tetrahydro-1-naphthalenyl]ethanesulfonamide] | 0.269 | – | – | 207 to 209 | 0.886 | 0.449 |
| CCOC(=O)Nc1cccc2c1CCCC2c1c[nH]cn1 (stereo not shown) [Example 120, ethyl 5-(1H-imidazol-4-yl)-5,6,7,8-tetrahydro-1-naphthalenylcarbamate] | 0.164 | 10 | 2.91 | – | – | – |

Reference: patent US20030073850A1, “4-Imidazole derivatives of benzyl and restricted benzyl sulfonamides, sulfamides, ureas, carbamates, and amides and their use” (priority 1998, published 2003)
